Assay results taken from paper doi:10.1101/2020.06.11.145995v1 (biorxiv, 2020).
Read-outs that look alike come from different tables or passages of the source.

Columns and labels:
Test in all cases: biochemical
ABL2 = ABL2 (Homo sapiens, UniProt P42684)
ACVRL1 = ACVRL1 (Homo sapiens, UniProt P37023)
ASK2 = ASK2 (Homo sapiens, UniProt O95382)
BMPR2 = BMPR2 (Homo sapiens, UniProt Q13873)
CDKL2 = CDKL2 (Homo sapiens, UniProt Q92772)
CHEK2 = CHEK2 (Homo sapiens, UniProt O96017)
CIT = CIT (Homo sapiens, UniProt O14578)
CLK3 = CLK3 (Homo sapiens, UniProt P49761)
CSNK1A1L = CSNK1A1L (Homo sapiens, UniProt Q8N752)
CSNK1G1 = CSNK1G1 (Homo sapiens, UniProt Q9HCP0)
DDR1 = DDR1 (Homo sapiens, UniProt Q08345)
EGFR(L858R) = EGFR(L858R) (Homo sapiens, UniProt P00533, L858R)
FLT3(K663Q) = FLT3(K663Q) (Homo sapiens, UniProt P36888, K663Q)
FLT4 = FLT4 (Homo sapiens, UniProt P35916)
GRK4 = GRK4 (Homo sapiens, UniProt P32298)
HUNK = HUNK (Homo sapiens, UniProt P57058)
JNK1 = JNK1 (Homo sapiens, UniProt P45983)
KIT = KIT (Homo sapiens, UniProt P10721)
KIT(A829P) = KIT(A829P) (Homo sapiens, UniProt P10721, A829P)
LATS1 = LATS1 (Homo sapiens, UniProt O95835)
LIMK2 = LIMK2 (Homo sapiens, UniProt P53671)
LKB1 = LKB1 (Homo sapiens, UniProt Q15831)
LOK = LOK (Homo sapiens, UniProt O94804)
LRRK2(G2019S) = LRRK2(G2019S) (Homo sapiens, UniProt Q5S007, G2019S)
MEK4 = MEK4 (Homo sapiens, UniProt P45985)
MEK5 = MEK5 (Homo sapiens, UniProt Q13163)
MET(Y1235D) = MET(Y1235D) (Homo sapiens, UniProt P08581, Y1235D)
MRCKB = MRCKB (Homo sapiens, UniProt Q9Y5S2)
MTOR = MTOR (Homo sapiens, UniProt P42345)
[1] = read-out: CPT-1-70-1 (1uM) % control
[2] = read-out: HYJ-2-002-1 (1uM) % control

JNK1, sequence (P45983 whole entry): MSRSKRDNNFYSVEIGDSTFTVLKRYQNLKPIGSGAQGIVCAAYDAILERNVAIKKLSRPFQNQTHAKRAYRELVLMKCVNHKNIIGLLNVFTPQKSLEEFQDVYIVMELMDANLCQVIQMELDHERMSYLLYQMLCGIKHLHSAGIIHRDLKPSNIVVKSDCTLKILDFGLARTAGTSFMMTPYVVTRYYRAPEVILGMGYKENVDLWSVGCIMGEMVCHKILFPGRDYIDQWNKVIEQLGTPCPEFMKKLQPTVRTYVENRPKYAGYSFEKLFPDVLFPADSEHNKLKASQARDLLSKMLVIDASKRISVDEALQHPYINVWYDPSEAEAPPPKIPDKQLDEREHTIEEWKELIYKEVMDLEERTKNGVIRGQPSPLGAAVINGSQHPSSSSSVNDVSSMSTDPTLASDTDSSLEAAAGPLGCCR
MRCKB, sequence (Q9Y5S2 whole entry): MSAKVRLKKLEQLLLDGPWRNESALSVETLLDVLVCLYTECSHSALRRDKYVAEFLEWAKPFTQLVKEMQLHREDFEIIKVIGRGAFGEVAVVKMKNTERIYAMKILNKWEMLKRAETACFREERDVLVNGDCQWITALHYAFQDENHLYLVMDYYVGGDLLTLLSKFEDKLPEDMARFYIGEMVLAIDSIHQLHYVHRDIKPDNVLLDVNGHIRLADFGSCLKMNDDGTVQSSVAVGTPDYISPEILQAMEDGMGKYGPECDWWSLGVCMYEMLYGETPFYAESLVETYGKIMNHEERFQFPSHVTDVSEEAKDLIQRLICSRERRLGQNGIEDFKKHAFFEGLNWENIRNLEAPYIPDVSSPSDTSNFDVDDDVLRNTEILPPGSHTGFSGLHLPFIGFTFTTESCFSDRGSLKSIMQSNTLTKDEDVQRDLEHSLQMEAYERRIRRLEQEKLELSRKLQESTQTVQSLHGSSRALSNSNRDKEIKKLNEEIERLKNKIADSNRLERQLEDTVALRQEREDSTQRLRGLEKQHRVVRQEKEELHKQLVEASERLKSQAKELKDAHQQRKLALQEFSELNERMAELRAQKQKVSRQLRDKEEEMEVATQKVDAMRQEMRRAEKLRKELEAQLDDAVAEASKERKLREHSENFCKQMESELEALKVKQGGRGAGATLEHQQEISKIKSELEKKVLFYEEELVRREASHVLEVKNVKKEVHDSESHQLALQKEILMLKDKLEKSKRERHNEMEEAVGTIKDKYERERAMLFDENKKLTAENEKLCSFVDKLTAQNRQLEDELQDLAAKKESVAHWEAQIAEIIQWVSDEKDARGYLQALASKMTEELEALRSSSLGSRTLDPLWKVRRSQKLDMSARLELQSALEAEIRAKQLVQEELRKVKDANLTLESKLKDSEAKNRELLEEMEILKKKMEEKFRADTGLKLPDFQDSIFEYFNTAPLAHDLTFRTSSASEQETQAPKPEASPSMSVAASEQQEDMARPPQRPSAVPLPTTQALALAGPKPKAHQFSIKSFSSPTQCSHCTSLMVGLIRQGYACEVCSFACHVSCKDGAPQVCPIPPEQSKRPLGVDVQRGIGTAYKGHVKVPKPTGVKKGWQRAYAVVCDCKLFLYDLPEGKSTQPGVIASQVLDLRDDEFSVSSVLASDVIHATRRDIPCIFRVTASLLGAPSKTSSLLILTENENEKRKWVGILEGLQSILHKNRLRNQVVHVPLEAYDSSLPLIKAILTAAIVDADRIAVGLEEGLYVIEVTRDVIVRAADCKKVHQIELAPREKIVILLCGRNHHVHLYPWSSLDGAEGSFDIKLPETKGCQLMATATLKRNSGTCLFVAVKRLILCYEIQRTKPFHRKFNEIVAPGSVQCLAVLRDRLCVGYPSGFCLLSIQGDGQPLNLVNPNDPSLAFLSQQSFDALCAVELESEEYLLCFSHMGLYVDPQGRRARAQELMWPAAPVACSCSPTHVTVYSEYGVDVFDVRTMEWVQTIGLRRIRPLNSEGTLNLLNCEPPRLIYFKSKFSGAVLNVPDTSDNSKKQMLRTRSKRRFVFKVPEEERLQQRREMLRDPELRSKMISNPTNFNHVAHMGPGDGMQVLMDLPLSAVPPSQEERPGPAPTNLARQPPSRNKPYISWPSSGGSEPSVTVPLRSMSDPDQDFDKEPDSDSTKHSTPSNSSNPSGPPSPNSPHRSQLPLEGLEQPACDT
CHEK2, sequence (O96017 whole entry): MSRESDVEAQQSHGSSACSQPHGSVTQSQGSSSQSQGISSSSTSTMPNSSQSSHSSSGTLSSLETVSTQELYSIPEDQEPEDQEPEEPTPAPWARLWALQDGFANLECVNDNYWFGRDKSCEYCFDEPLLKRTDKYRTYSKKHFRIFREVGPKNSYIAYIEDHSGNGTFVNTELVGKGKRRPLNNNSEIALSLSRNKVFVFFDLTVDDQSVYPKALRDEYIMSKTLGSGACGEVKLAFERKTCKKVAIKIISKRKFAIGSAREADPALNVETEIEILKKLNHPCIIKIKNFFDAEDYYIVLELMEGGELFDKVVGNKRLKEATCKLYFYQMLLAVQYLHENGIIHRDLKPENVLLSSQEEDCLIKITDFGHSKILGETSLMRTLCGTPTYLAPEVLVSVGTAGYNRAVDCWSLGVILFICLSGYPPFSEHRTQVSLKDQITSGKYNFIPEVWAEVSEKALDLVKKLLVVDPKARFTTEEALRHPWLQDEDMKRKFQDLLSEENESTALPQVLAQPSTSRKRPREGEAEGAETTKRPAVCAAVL
CSNK1G1, sequence (Q9HCP0 whole entry): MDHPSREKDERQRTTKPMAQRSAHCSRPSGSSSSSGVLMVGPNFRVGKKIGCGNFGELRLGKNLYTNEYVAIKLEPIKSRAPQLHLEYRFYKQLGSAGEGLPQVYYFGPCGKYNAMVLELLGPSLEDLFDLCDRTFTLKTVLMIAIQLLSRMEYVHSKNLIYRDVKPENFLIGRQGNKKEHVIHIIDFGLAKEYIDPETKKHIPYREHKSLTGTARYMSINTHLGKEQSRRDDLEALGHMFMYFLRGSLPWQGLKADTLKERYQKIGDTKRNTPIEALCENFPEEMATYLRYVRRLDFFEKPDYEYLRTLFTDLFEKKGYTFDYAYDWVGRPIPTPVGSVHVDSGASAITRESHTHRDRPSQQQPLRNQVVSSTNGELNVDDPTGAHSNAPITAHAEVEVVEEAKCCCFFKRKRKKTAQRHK
ABL2, sequence (P42684 whole entry): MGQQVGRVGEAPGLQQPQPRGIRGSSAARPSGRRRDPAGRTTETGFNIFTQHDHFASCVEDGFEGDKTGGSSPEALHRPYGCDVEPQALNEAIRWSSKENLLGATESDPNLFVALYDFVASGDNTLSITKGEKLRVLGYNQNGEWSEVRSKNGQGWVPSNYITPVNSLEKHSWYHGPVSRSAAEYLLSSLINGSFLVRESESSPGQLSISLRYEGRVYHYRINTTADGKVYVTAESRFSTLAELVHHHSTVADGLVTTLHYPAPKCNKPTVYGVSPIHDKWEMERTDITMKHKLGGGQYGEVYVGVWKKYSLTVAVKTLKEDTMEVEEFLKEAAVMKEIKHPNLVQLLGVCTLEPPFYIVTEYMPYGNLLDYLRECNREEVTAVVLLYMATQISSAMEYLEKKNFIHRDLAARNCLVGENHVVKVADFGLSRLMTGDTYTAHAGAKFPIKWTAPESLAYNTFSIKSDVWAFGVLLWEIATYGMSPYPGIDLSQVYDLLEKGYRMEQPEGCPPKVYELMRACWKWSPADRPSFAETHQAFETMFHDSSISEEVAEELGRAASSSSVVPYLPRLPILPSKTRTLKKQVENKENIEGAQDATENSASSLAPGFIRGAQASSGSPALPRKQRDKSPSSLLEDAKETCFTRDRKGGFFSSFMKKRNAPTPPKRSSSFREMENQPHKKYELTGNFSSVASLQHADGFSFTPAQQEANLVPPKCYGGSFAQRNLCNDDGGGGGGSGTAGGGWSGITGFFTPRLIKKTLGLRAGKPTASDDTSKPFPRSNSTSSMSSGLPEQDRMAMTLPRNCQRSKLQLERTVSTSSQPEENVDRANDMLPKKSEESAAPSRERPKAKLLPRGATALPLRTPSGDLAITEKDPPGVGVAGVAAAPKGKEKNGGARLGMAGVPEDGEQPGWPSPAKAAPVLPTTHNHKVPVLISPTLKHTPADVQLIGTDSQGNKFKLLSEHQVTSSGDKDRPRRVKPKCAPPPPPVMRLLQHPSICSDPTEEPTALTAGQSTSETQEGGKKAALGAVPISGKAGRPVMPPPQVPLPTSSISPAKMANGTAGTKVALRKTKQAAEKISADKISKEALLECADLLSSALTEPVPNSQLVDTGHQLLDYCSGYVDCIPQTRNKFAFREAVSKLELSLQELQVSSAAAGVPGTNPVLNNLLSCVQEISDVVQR
LKB1, sequence (Q15831 whole entry): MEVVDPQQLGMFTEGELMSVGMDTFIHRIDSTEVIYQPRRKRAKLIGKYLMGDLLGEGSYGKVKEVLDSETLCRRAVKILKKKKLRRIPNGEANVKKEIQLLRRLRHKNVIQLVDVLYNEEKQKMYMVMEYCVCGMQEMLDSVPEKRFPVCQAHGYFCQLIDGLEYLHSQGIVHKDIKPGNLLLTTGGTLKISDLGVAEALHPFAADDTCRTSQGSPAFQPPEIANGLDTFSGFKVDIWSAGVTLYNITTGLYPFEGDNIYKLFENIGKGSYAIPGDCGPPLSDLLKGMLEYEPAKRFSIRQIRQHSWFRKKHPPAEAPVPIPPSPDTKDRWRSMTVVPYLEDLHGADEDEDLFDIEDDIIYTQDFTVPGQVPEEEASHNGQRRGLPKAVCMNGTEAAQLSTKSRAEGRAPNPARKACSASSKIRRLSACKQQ
CSNK1A1L, sequence (Q8N752 whole entry): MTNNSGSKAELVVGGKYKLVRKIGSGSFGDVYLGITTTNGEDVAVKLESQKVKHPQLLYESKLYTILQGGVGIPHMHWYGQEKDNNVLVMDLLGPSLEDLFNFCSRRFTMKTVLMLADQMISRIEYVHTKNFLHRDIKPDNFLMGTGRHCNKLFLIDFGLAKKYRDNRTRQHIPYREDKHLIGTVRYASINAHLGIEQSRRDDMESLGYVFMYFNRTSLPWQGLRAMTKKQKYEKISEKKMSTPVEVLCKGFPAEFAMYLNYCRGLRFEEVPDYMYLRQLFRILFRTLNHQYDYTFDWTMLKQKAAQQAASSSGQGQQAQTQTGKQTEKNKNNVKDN

CN1CCN(c2ccc(Nc3nc(Oc4ccc(NC(=O)CCl)cc4)c4cc[nH]c4n3)cc2)CC1 [CPT1-70-1]
remaining activity at 1 µM (ABL2; [1]): 60%
remaining activity at 1 µM (ACVRL1; [1]): 100%
remaining activity at 1 µM (ASK2; [1]): 100%
remaining activity at 1 µM (BMPR2; [1]): 100%
remaining activity at 1 µM (CDKL2; [1]): 11%
remaining activity at 1 µM (CHEK2; [1]): 38%
remaining activity at 1 µM (CIT; [1]): 26%
remaining activity at 1 µM (CLK3; [1]): 82%
remaining activity at 1 µM (CSNK1A1L; [1]): 80%
remaining activity at 1 µM (CSNK1G1; [1]): 18%
remaining activity at 1 µM (DDR1; [1]): 79%
remaining activity at 1 µM (EGFR(L858R); [1]): 22%
remaining activity at 1 µM (FLT3(K663Q); [1]): 2.4%
remaining activity at 1 µM (FLT4; [1]): 81%
remaining activity at 1 µM (GRK4; [1]): 100%
remaining activity at 1 µM (HUNK; [1]): 78%
remaining activity at 1 µM (JNK1; [1]): 2.4%
remaining activity at 1 µM (KIT; [1]): 20%
remaining activity at 1 µM (KIT(A829P); [1]): 75%
remaining activity at 1 µM (LATS1; [1]): 77%
remaining activity at 1 µM (LIMK2; [1]): 100%
remaining activity at 1 µM (LKB1; [1]): 76%
remaining activity at 1 µM (LOK; [1]): 100%
remaining activity at 1 µM (LRRK2(G2019S); [1]): 2.6%
remaining activity at 1 µM (MEK4; [1]): 35%
remaining activity at 1 µM (MEK5; [1]): 18%
remaining activity at 1 µM (MET(Y1235D); [1]): 23%
remaining activity at 1 µM (MRCKB; [1]): 100%
remaining activity at 1 µM (MTOR; [1]): 66%

CCN1CCN(Cc2ccc(NC(=O)c3ccc(C)c(CCc4cnc5[nH]ccc5c4OC)c3)cc2C(F)(F)F)CC1 [HYJ-2-002-1]
remaining activity at 1 µM (ABL2; [2]): 0%
remaining activity at 1 µM (ACVRL1; [2]): 100%
remaining activity at 1 µM (ASK2; [2]): 100%
remaining activity at 1 µM (BMPR2; [2]): 98%
remaining activity at 1 µM (CDKL2; [2]): 2.3%
remaining activity at 1 µM (CHEK2; [2]): 63%
remaining activity at 1 µM (CIT; [2]): 6.7%
remaining activity at 1 µM (CLK3; [2]): 88%
remaining activity at 1 µM (CSNK1A1L; [2]): 100%
remaining activity at 1 µM (CSNK1G1; [2]): 93%
remaining activity at 1 µM (DDR1; [2]): 0%
remaining activity at 1 µM (EGFR(L858R); [2]): 3.2%
remaining activity at 1 µM (FLT3(K663Q); [2]): 1.6%
remaining activity at 1 µM (FLT4; [2]): 3.8%
remaining activity at 1 µM (GRK4; [2]): 100%
remaining activity at 1 µM (HUNK; [2]): 79%
remaining activity at 1 µM (JNK1; [2]): 72%
remaining activity at 1 µM (KIT; [2]): 0%
remaining activity at 1 µM (KIT(A829P); [2]): 61%
remaining activity at 1 µM (LATS1; [2]): 100%
remaining activity at 1 µM (LIMK2; [2]): 32%
remaining activity at 1 µM (LKB1; [2]): 100%
remaining activity at 1 µM (LOK; [2]): 0.75%
remaining activity at 1 µM (LRRK2(G2019S); [2]): 83%
remaining activity at 1 µM (MEK4; [2]): 100%
remaining activity at 1 µM (MEK5; [2]): 0.85%
remaining activity at 1 µM (MET(Y1235D); [2]): 83%
remaining activity at 1 µM (MRCKB; [2]): 100%
remaining activity at 1 µM (MTOR; [2]): 93%
